Among the data in PubChem BioAssay AID651642 (Sanford-Burnham Center for Chemical Genomics, 2012) are IC50 values, retold here.

Structures are written as SMILES.

The subject of one experiment is H9c2. In words: protection of cardiomyocytes from stress damage, SAR follow-up, cell-based, panel, H9c2 and HL-1, H2O2, 2-deoxyglucose, ATP luminescence (AID 651642).
The test system of the next experiment is HL-1. Described as above.
Where [1] appears, read: H9c2/HL-1 cardiomyocyte 2-deoxyglucose damage, mean of runs, with 2-deoxyglucose, mean IC50 across panel.
The mark [2] stands for this setting: H9c2/HL-1 cardiomyocyte 2-deoxyglucose damage, run 1, with 2-deoxyglucose.
Setting [3] is: H9c2/HL-1 cardiomyocyte 2-deoxyglucose damage, run 2, with 2-deoxyglucose.
[4] abbreviates: H9c2/HL-1 cardiomyocyte 2-deoxyglucose damage, run 3, with 2-deoxyglucose.
[5] abbreviates: H9c2/HL-1 cardiomyocyte 2-deoxyglucose damage, run 4, with 2-deoxyglucose.
Where [6] appears, read: H9c2/HL-1 cardiomyocyte H2O2 oxidative damage, run 1, with H2O2.
The mark [7] stands for this setting: H9c2/HL-1 cardiomyocyte H2O2 oxidative damage, run 2, with H2O2.
Where [8] appears, read: H9c2/HL-1 cardiomyocyte H2O2 oxidative damage, run 3, with H2O2.
Where [9] appears, read: H9c2/HL-1 cardiomyocyte H2O2 oxidative damage, run 4, with H2O2.
Where [10] appears, read: H9c2/HL-1 cardiomyocyte H2O2 oxidative damage, mean of runs, with H2O2, mean IC50 across panel.

As usually defined, the IC50 is the concentration that inhibits the measured activity by half. Higher therefore signals lower potency. `COc1ccc2c(c1OC)C(=O)N1c3ccccc3C(=O)N(Cc3cccc(F)c3)C21` (configuration not stated): the IC50 in the experiment with H9c2 (setting [1]) was > 79 µM; in the experiment on H9c2 (setting [2]), > 79 µM; in the experiment with H9c2 (setting [3]), > 79 µM; with H9c2 (setting [4]), > 79 µM; in the experiment on H9c2 (setting [5]) it was > 79 µM; in the experiment on H9c2 (setting [6]), 1.15 µM. The half-inhibitory concentration (IC50) is 1.56 µM in the experiment with H9c2 (setting [7]); > 79 µM in the experiment with H9c2 (setting [8]); > 79 µM in the experiment on H9c2 (setting [9]); 6.54 µM with HL-1 (setting [1]); 3.49 µM with HL-1 (setting [2]); 4.29 µM in the experiment with HL-1 (setting [3]). Besides, the IC50 is 9.07 µM in the experiment with HL-1 (setting [4]); 9.32 µM in the experiment with HL-1 (setting [5]); > 79 µM in the experiment on HL-1 (setting [10]); > 79 µM in the experiment with HL-1 (setting [6]); > 79 µM in the experiment with HL-1 (setting [7]); > 79 µM in the experiment with HL-1 (setting [8]). Moreover, the IC50 with HL-1 (setting [9]) is > 79 µM.

`CCOC(=O)c1cccc(NC(=O)CNC(=O)c2cc(-c3cc(OC)c(OC)c(OC)c3)nc3ccc(F)cc23)c1`: the IC50 in the experiment with H9c2 (setting [1]) was 3.79 µM; in the experiment with H9c2 (setting [2]) it was 4.83 µM; with H9c2 (setting [3]), 5.33 µM; in the experiment with H9c2 (setting [4]) it was 1.98 µM; with H9c2 (setting [5]), 3.04 µM; with H9c2 (setting [10]), 0.688 µM. In addition, the IC50 in the experiment with H9c2 (setting [6]) stood at 0.838 µM; in the experiment on H9c2 (setting [7]) it was 0.849 µM; in the experiment with H9c2 (setting [8]) it was 0.526 µM; with H9c2 (setting [9]), 0.541 µM; in the experiment on HL-1 (setting [1]), 2.58 µM; with HL-1 (setting [2]), 1.56 µM. Besides, the IC50 came out at 1.76 µM in the experiment with HL-1 (setting [3]); 3.27 µM in the experiment with HL-1 (setting [4]); 3.74 µM with HL-1 (setting [5]); 2.38 µM in the experiment with HL-1 (setting [10]); 1.7 µM in the experiment on HL-1 (setting [6]); 3.23 µM in the experiment with HL-1 (setting [7]). The IC50 is 1.98 µM in the experiment with HL-1 (setting [8]) and 2.6 µM in the experiment on HL-1 (setting [9]).

Regarding `COc1cc(-c2cc(C(=O)Nc3cccc(C(C)=O)c3)c3cc(C)ccc3n2)cc(OC)c1OC`, the IC50 is > 79 µM in the experiment with H9c2 (setting [1]); > 79 µM with H9c2 (setting [2]); > 79 µM with H9c2 (setting [3]); > 79 µM in the experiment on H9c2 (setting [4]); > 79 µM with H9c2 (setting [5]); 5.05 µM in the experiment on H9c2 (setting [10]). Further, the IC50 in the experiment with H9c2 (setting [6]) came to 4.03 µM; in the experiment on H9c2 (setting [7]), 8.34 µM; in the experiment with H9c2 (setting [8]), 3.55 µM; in the experiment with H9c2 (setting [9]) it was 4.29 µM; with HL-1 (setting [2]), 4.82 µM; in the experiment with HL-1 (setting [3]), 5.03 µM. For the same compound, the concentration for half-maximal inhibition (IC50) in the experiment on HL-1 (setting [4]) is > 79 µM; in the experiment on HL-1 (setting [5]) it was > 79 µM; with HL-1 (setting [10]), 4.11 µM; with HL-1 (setting [6]), 4.85 µM; in the experiment on HL-1 (setting [7]), 5.7 µM; in the experiment on HL-1 (setting [8]), 2.78 µM. Besides, in the experiment with HL-1 (setting [9]), the IC50 is 3.12 µM.

For `CCOC(=O)c1cccc(NC(=O)c2cc(-c3cc(OC)c(OC)c(OC)c3)nc3ccccc23)c1`, the 50% inhibitory concentration (IC50) in the experiment with H9c2 (setting [1]) is > 79 µM; with H9c2 (setting [2]), > 79 µM; with H9c2 (setting [3]) it was > 79 µM; in the experiment with H9c2 (setting [4]) it was > 79 µM; with H9c2 (setting [5]), > 79 µM; in the experiment with H9c2 (setting [6]), 3.9 µM. Besides, the IC50 with H9c2 (setting [7]) was 4.44 µM; in the experiment with H9c2 (setting [8]), > 79 µM; with H9c2 (setting [9]), > 79 µM; in the experiment with HL-1 (setting [2]), 3.23 µM; in the experiment with HL-1 (setting [3]), 3.46 µM; in the experiment on HL-1 (setting [4]), > 79 µM. Further, the IC50 in the experiment with HL-1 (setting [5]) is > 79 µM; in the experiment with HL-1 (setting [10]) it was 4.62 µM; in the experiment with HL-1 (setting [6]), 3.4 µM; in the experiment on HL-1 (setting [7]), 4.59 µM; in the experiment with HL-1 (setting [8]), 3.78 µM; in the experiment with HL-1 (setting [9]) it was 6.72 µM.

On to `CCOC(=O)c1cccc(NC(=O)c2cc(-c3cc(OC)c(OC)c(OC)c3)nc3ccc(Br)cc23)c1`, for which the IC50 with H9c2 (setting [1]) is > 79 µM; with H9c2 (setting [2]), > 79 µM; in the experiment on H9c2 (setting [3]), > 79 µM; in the experiment with H9c2 (setting [4]), > 79 µM; in the experiment on H9c2 (setting [5]), > 79 µM; in the experiment with H9c2 (setting [6]), 2.86 µM. The half-maximal inhibitory concentration (IC50) in the experiment on H9c2 (setting [7]) was 3.15 µM; in the experiment with H9c2 (setting [8]), > 79 µM; with H9c2 (setting [9]) it was > 79 µM; in the experiment on HL-1 (setting [1]) it was > 79 µM; in the experiment with HL-1 (setting [2]), > 79 µM; in the experiment on HL-1 (setting [3]) it was > 79 µM. Further, the IC50 in the experiment on HL-1 (setting [4]) was > 79 µM; in the experiment with HL-1 (setting [5]), > 79 µM; in the experiment with HL-1 (setting [6]), > 79 µM; with HL-1 (setting [7]), > 79 µM; with HL-1 (setting [8]), > 79 µM; in the experiment on HL-1 (setting [9]), 4.69 µM.

For the compound `COc1cc(-c2cc(C(=O)Nc3cccc(C(C)=O)c3)c3cc(Br)ccc3n2)cc(OC)c1OC`, the IC50 in the experiment on H9c2 (setting [1]), with H9c2 (setting [2]), with H9c2 (setting [3]), in the experiment with H9c2 (setting [4]), in the experiment with H9c2 (setting [5]) and in the experiment with H9c2 (setting [6]) was > 79 µM throughout. Also, the IC50 in the experiment with H9c2 (setting [7]) was 10.4 µM; in the experiment on H9c2 (setting [8]), > 79 µM; with H9c2 (setting [9]), > 79 µM; with HL-1 (setting [1]) it was > 79 µM; in the experiment with HL-1 (setting [2]), > 79 µM; in the experiment with HL-1 (setting [3]) it was > 79 µM. Moreover, the half-maximal inhibitory concentration (IC50) in the experiment on HL-1 (setting [4]) was > 79 µM; in the experiment on HL-1 (setting [5]) it was > 79 µM; with HL-1 (setting [6]), > 79 µM; with HL-1 (setting [7]) it was 9.89 µM; with HL-1 (setting [8]), 2.56 µM; with HL-1 (setting [9]), 2.83 µM.
